According to the NIST ThermoML archive (doi:10.1021/acs.jced.8b00132):
Several values for one entry are separate records, joined by “and”; a condition that tells them apart may be missing. Equal entries are not always repeated.

O=C(C(F)(F)C(F)(F)F)C(F)(C(F)(F)F)C(F)(F)F [dodecafluoro-2-methylpentan-3-one]
Details | thermal conductivity
433.25 K, 43 kPa, Gas, hot wire | 0.02108 W/m/K
433.25 K, 156 kPa, Gas, hot wire | 0.02107 W/m/K
433.27 K, 1298 kPa, Gas, transient hot wire | 0.02415 W/m/K
433.28 K, 371 kPa, Gas, hot wire | 0.0228 W/m/K and 0.02281 W/m/K
433.28 K, 922 kPa, Gas, transient hot wire | 0.02221 W/m/K
433.28 K, 49421 kPa, Liquid, transient hot wire | 0.0643 W/m/K
433.29 K, 49444 kPa, Liquid, transient hot wire | 0.06433 W/m/K
433.3 K, 9673 kPa, Liquid, transient hot wire | 0.04596 W/m/K
433.3 K, 22710 kPa, Liquid, transient hot wire | 0.05348 W/m/K
433.31 K, 9675 kPa, Liquid, transient hot wire | 0.04592 W/m/K
433.35 K, 1138 kPa, Gas, transient hot wire | 0.02299 W/m/K
433.36 K, 15082 kPa, Liquid, transient hot wire | 0.04913 W/m/K
433.36 K, 22714 kPa, Liquid, transient hot wire | 0.0536 W/m/K
433.37 K, 162 kPa, Gas, hot wire | 0.02126 W/m/K
433.37 K, 1138 kPa, Gas, transient hot wire | 0.02295 W/m/K
433.37 K, 15085 kPa, Liquid, transient hot wire | 0.04954 W/m/K
433.38 K, 43 kPa, Gas, hot wire | 0.02108 W/m/K
433.38 K, 159 kPa, Gas, hot wire | 0.02129 W/m/K
433.38 K, 6166 kPa, Liquid, transient hot wire | 0.04304 W/m/K
433.39 K, 43 kPa, Gas, hot wire | 0.02105 W/m/K
433.39 K, 6163 kPa, Liquid, transient hot wire | 0.04307 W/m/K
433.41 K, 34187 kPa, Liquid, transient hot wire | 0.05868 W/m/K
433.43 K, 922 kPa, Gas, transient hot wire | 0.02216 W/m/K
433.43 K, 34200 kPa, Liquid, transient hot wire | 0.05865 W/m/K
433.44 K, 922 kPa, Gas, transient hot wire | 0.02224 W/m/K
433.45 K, 3945 kPa, Liquid, transient hot wire | 0.04079 W/m/K
433.46 K, 3946 kPa, Liquid, transient hot wire | 0.04082 W/m/K
433.49 K, 9685 kPa, Liquid, transient hot wire | 0.046 W/m/K
433.5 K, 375 kPa, Gas, transient hot wire | 0.02215 W/m/K
433.5 K, 9681 kPa, Liquid, transient hot wire | 0.04597 W/m/K
433.51 K, 377 kPa, Gas, transient hot wire | 0.02227 W/m/K
433.52 K, 1139 kPa, Gas, transient hot wire | 0.02308 W/m/K and 0.02311 W/m/K
433.53 K, 654 kPa, Gas, transient hot wire | 0.02193 W/m/K
433.53 K, 655 kPa, Gas, transient hot wire | 0.02205 W/m/K
433.55 K, 15079 kPa, Liquid, transient hot wire | 0.04951 W/m/K
433.55 K, 15081 kPa, Liquid, transient hot wire | 0.04953 W/m/K
433.55 K, 22699 kPa, Liquid, transient hot wire | 0.05365 W/m/K
433.55 K, 22714 kPa, Liquid, transient hot wire | 0.05356 W/m/K
433.59 K, 6168 kPa, Liquid, transient hot wire | 0.04309 W/m/K
433.59 K, 6172 kPa, Liquid, transient hot wire | 0.04309 W/m/K
433.6 K, 922 kPa, Gas, transient hot wire | 0.02237 W/m/K
433.69 K, 1141 kPa, Gas, transient hot wire | 0.02332 W/m/K
433.7 K, 374 kPa, Gas, transient hot wire | 0.02216 W/m/K
433.7 K, 375 kPa, Gas, transient hot wire | 0.02227 W/m/K
433.7 K, 1140 kPa, Gas, transient hot wire | 0.02335 W/m/K
433.7 K, 9688 kPa, Liquid, transient hot wire | 0.04596 W/m/K
433.7 K, 9691 kPa, Liquid, transient hot wire | 0.046 W/m/K
433.72 K, 652 kPa, Gas, transient hot wire | 0.02204 W/m/K
433.74 K, 651 kPa, Gas, transient hot wire | 0.02205 W/m/K
433.76 K, 15088 kPa, Liquid, transient hot wire | 0.04948 W/m/K
433.76 K, 15091 kPa, Liquid, transient hot wire | 0.04951 W/m/K
433.79 K, 922 kPa, Gas, transient hot wire | 0.02242 W/m/K
433.81 K, 6177 kPa, Liquid, transient hot wire | 0.04299 W/m/K
433.82 K, 6182 kPa, Liquid, transient hot wire | 0.04309 W/m/K
433.87 K, 1141 kPa, Gas, transient hot wire | 0.02354 W/m/K
433.88 K, 1141 kPa, Gas, transient hot wire | 0.02356 W/m/K
433.89 K, 373 kPa, Gas, transient hot wire | 0.02231 W/m/K
433.9 K, 373 kPa, Gas, transient hot wire | 0.02227 W/m/K
433.92 K, 9693 kPa, Liquid, transient hot wire | 0.04597 W/m/K
433.92 K, 9695 kPa, Liquid, transient hot wire | 0.04596 W/m/K
433.94 K, 648 kPa, Gas, transient hot wire | 0.02211 W/m/K
433.94 K, 649 kPa, Gas, transient hot wire | 0.02204 W/m/K
433.96 K, 922 kPa, Gas, transient hot wire | 0.02254 W/m/K
433.98 K, 922 kPa, Gas, transient hot wire | 0.02253 W/m/K
434.12 K, 372 kPa, Gas, transient hot wire | 0.02229 W/m/K and 0.02228 W/m/K
434.14 K, 645 kPa, Gas, transient hot wire | 0.02216 W/m/K
434.14 K, 646 kPa, Gas, transient hot wire | 0.02214 W/m/K
434.33 K, 371 kPa, Gas, transient hot wire | 0.02233 W/m/K
434.35 K, 371 kPa, Gas, transient hot wire | 0.02232 W/m/K
452.91 K, 2283 kPa, Gas, transient hot wire | 0.03823 W/m/K
452.94 K, 2214 kPa, Gas, transient hot wire | 0.03736 W/m/K
452.96 K, 2283 kPa, Gas, transient hot wire | 0.03736 W/m/K
452.98 K, 2213 kPa, Gas, transient hot wire | 0.03655 W/m/K
452.99 K, 2283 kPa, Gas, transient hot wire | 0.03849 W/m/K
452.99 K, 2349 kPa, Gas, transient hot wire | 0.03688 W/m/K
453 K, 2137 kPa, Gas, transient hot wire | 0.033 W/m/K
453 K, 2214 kPa, Gas, transient hot wire | 0.0364 W/m/K
453 K, 2283 kPa, Gas, transient hot wire | 0.03799 W/m/K
453.01 K, 2349 kPa, Gas, transient hot wire | 0.03694 W/m/K
453.01 K, 2431 kPa, Gas, transient hot wire | 0.0358 W/m/K
453.03 K, 2213 kPa, Gas, transient hot wire | 0.03832 W/m/K
453.03 K, 2432 kPa, Gas, transient hot wire | 0.03591 W/m/K
453.04 K, 2137 kPa, Gas, transient hot wire | 0.03326 W/m/K
453.04 K, 2213 kPa, Gas, transient hot wire | 0.0384 W/m/K and 0.03766 W/m/K
